Laboratory results reported in patent publication US7662851B2, “Use of specific cyklolignans” (Axelar AB, priority 2001, dated 2010).
Converted amounts (≈) assume the structure as drawn.

Legend:
IGF-1R = IGF-1R (Homo sapiens, UniProt P08069); experiment: In vitro tyrosine kinase assay: IGF-1R-catalyzed substrate phosphorylation of polyTyrGlu (pTG), cell-free; assay type: biochemical; parameters: expressed in transfected cells; host or cells: P6 cell line (murine fibroblasts overexpressing human IGF-1R); receptor captured on plates with an antibody to the beta subunit; details: FIG. 3
Description: (§1) IGF-1R-catalyzed substrate phosphorylation of polyTyrGlu (pTG) was performed essentially as previously described [Parrizas M., et al., ibid., and Blum G., et al., ibid.]. Immunoprecipitated IR from HepG2, IGF-1R from P6 cell extract and immunodepleted supernatant to assay non-IGF-1R tyrosine kinases. The phosphorylated polymer substrate was probed with a purified phosphotyrosine specific monoclonal antibody conjugated to horseradish peroxidase (HARP). Color was developed with HRP chromogenic substrate o-phenylene-diamine dihydrochloride (OPD). The color was quantitated by spectrophotometry (ELISA reader) and reflects the relative amount of tyrosine kinase. The precipitate was immunoblotted with anti-bodies to IGF-1R and IR to verify the presence of the receptor. Serial dilutions were used to assay the optimal conditions with respect to the amount of IGF-1R and IR. The signal was linear for 30 minutes and was a function of IGF-1R concentration up to 75 ng/well. […] After spectrophotometry the IC50 values of inhibitors were determined using the Regression function of Statistica program.
(§2) Therefore we isolated the receptor and determined the effects of picropodophyllin on IGF-1R catalyzed substrate tyrosine phosphorylation and IGF-1R autophosphorylation in-vitro.

non-IGF-1R kinases = experiment: In vitro tyrosine kinase assay: non-IGF-1R kinases (IGF-1R-immunodepleted supernatant); assay type: biochemical; details: cell-free, FIG. 3
Description: as §1, §2

[1] = test system: BE (melanoma cells) xenografts; experiment: Tumor growth of BE xenografts in nude mice; assay type: in vivo; details: 28 mg/kg i.p. daily 4-6 days, then 4-6 days without treatment, FIG. 6
Description: Control mice were treated with the solvent. 3-6 animals were treated in each group.
Because of the toxicity of podophyllotoxin and deoxypodophyllotoxin, we only used picropodophyllin to analyze effects on tumor xenografts. For this purpose ES-1 (Ewing's sarcoma cells) and BE (melanoma cells) xenografts were established in nude mice. When the ES-1 and BE tumors started growing subcutaneously and were measurable, mice were treated daily with intraperitoneal injections of picropodophyllin (28 mg/kg, which was required for giving an average concentration above 0.05 μM of picropodophyllin in the blood plasma) or 80% DMSO in saline as a carrier for 4-6 days, followed by 4-6 days without treatment. The mice were then killed and the tumors analyzed by an experienced pathologist.

[2] = rats; cited from earlier work
[3] = test system: leukemia cell lines (K562/S, K562/Vcr30, HL60/0 and HL60/Nov); experiment: Leukemia cell viability, summary over the four cell lines; assay type: cell-based, human; details: 72 h
Description: (§3) The human chronic myeloid leukemia K562/S and K562/Vcr30 lines and the acute myeloid leukemia cell lines HL60/0 and HL60/Nov were obtained from ATCC. The K562/S and […] are wild type (non-resistant) cells, whereas K562/Vcr30 and HL60/Nov are cytostatic-resistant sublines. All leukemia cell lines were cultured in RPMI 1640 medium supplemented with 10% fetal bovine serum and with 2 mM L-glutamine, benzylpenicillin (100 U/ml) and streptomycin (100 μg/ml). The cells were grown in tissue culture flasks maintained at 95% air/5% CO2 atmosphere at 37° C. in a humidified incubator. For the experiments cells were cultured in 60-mm plastic dishes or 96-well plastic plates.
Cell proliferation kit II (Roche Inc.) is based on colorimetric change of the yellow tetrazolium salt XTT in orange formazan dye by the respiratory chain of viable cells (Roehm, N W, et al., J Immunol Methods 142:257-265, 1991). Cells seeded at a concentration of 5000/well in 100 μl medium in a 96-well plate were treated with different drugs in the given concentration. […] After 4 h the formazan dye is quantified using a scanning multiwell spectrophotometer with a 495-nm filter. The absorbance is directly correlated with the number of viable cells. The standard absorbance curve was drawn by means of untreated cells seeded at a concentration of from 1000 to 10 000 cells/well with an increasing rate of 1000 cells/well. […]

[4] = test system: HL60/Nov acute myeloid leukemia cells; experiment: Leukemia cell viability, HL60/Nov; assay type: cell-based, human; details: Homo sapiens, HL-60, 72 h, read-out: IC50 for cell viability
Description: as §3
Cell proliferation kit II (Roche Inc.) is based on colorimetric change of the yellow tetrazolium salt XTT in orange formazan dye by the respiratory chain of viable cells (Roehm, N W, et al., J Immunol Methods 142:257-265, 1991). Cells seeded at a concentration of 5000/well in 100 μl medium in a 96-well plate were treated with different drugs in the given concentration. After 24 or 48 h the cells were incubated, according to the manufacturer's protocol, with XTT labelling mixture. After 4 h the formazan dye is quantified using a scanning multiwell spectrophotometer with a 495-nm filter. The absorbance is directly correlated with the number of viable cells. The standard absorbance curve was drawn by means of untreated cells seeded at a concentration of from 1000 to 10 000 cells/well with an increasing rate of 1000 cells/well. All standards and experiments were performed in triplicates.
Cells of said cell lines were seeded in 96-well plates (25 000 cells/well, medium volume per well was 100 μl), in […] medium supplemented with fetal calf serum. After 24 h picropodophyllin and the derivatives alpha-apopicropodophyllin and beta-apopicropodo-phyllin were added at different concentrations and the cells were incubated for 72 h. Cell viability was then assayed (see above). […] The results are based on 3 different experiments.
The leukemia cell lines K562/S, […], HL60/0 and HL60/Nov were cultured in 96-well plates as described in Experiment 7. After 24 h, the cells were treated for 72 h with different concentrations of the anti-cancer agent vincristine, with and without co-incubation with 0.05 μM picropodophyllin. […] Cell viability was then assayed. IC50 values for each inhibitor and cell line are shown below (Table 8). The results are based on 3 different experiments.

Water solubility = assay type: physicochemical

IGF-1R, sequence (P08069 31-1367): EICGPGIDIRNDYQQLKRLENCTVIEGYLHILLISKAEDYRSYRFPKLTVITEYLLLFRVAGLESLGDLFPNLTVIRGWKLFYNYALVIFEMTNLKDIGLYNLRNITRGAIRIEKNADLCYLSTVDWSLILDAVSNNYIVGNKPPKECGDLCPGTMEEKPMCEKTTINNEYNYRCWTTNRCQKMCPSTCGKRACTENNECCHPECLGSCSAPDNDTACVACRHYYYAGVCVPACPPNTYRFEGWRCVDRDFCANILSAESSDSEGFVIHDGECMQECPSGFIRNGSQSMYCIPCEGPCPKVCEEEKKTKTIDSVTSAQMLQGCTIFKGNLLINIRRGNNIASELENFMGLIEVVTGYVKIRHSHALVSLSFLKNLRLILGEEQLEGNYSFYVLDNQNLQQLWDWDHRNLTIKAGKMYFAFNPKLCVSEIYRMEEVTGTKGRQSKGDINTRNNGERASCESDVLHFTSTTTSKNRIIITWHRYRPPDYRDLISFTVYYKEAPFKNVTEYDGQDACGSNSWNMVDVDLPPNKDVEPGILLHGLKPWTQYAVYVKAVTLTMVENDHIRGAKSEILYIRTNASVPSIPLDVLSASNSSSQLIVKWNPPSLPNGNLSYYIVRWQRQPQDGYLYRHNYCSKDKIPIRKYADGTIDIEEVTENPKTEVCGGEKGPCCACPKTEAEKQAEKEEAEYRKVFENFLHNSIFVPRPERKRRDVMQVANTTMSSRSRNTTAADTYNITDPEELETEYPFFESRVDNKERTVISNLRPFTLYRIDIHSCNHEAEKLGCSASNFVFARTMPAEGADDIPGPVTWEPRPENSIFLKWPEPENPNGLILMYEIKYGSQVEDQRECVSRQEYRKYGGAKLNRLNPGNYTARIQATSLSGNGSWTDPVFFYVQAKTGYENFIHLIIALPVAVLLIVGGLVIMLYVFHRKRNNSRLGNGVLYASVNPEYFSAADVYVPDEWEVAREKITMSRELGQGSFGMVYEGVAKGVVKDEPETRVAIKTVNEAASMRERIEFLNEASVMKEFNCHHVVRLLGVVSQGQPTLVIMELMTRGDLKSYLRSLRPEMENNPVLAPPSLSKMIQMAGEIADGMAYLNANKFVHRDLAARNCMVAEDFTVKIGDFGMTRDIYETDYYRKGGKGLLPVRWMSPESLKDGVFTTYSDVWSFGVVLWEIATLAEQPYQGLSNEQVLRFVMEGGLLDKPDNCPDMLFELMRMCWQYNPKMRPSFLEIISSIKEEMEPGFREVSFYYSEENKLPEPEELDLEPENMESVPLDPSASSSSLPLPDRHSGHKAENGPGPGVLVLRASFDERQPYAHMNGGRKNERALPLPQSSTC

Compound | IC50 (IGF-1R) [µM] | Interference with substrate phosphorylation of other non-IGF-1R kinases (non-IGF-1R kinases) | Effect on tumor growth [1] | Fold higher LD50 than podophyllotoxin [2] | IC50 ([3]; Homo sapiens, read-out: Concentration needed to cause 50% cell death) [µM] | Cell death in the tumor cells ([3]; leukemia cell lines, 0.05 μM) | IC50 [4] [µM] | solubility (Water solubility) [µM]
COc1cc([C@@H]2c3cc4c(cc3[C@H](O)[C@H]3COC(=O)[C@@H]23)OCO4)cc(OC)c1OC [Picropodophyllin, picropodophyllin] | 0.006 | failed to interfere | significantly inhibited growth | more than 35 fold | 0.11 to 0.32 | did not cause any detectable cell death | 0.11 | –
COc1cc([C@@H]2c3cc4c(cc3[C@H](O)[C@H]3COC(=O)[C@H]23)OCO4)cc(OC)c1OC [Podophyllotoxin, podophyllotoxin] | – | – | – | – | – | – | – | 100 to 200 (≈ 41.4 to 82.9 µg/mL)
